Where two headings read alike, the source gives them in different places. Each block holds one molecule with its values, some of them ahead of it. No end group written: not given here.
Columns and labels:
[1] = Pharmacokinetics of GLP-1 compound after oral gavage with delivery agent (subcutaneous control); type: in vivo, Male Sprague Dawley rats; conditions: rat
Experimental: A solution of Val^8-Glu^22-GLP-1 was prepared by dissolving the GLP-1 compound in distilled water to yield a concentration of 7 mg/mL. The pH was slowly raised to 10.5 with 2 N NaOH, followed by incubation at room temperature for 30 minutes. A volume of 1 M Tris buffer, pH 8.0 was added to give a final buffer concentration 20 mM Tris, and the pH adjusted to pH 7.8 with 1 N or 5 N HCl. The solution was then filtered through a low protein binding […] syringe filter (Millex GV, Millipore) and the concentration of the GLP-1 compound was determined by UV spectroscopy. The solution was diluted to a final concentration of 5.5 mg/mL using 20 mM Tris buffer, pH 7.8. The peptide solution was then stored in 1.0 mL aliquots at −70° C. until used.
Final formulations were freshly prepared approximately 30 minutes to 1 hour prior to in vivo dosing by combining 4.5 mL of the delivery agent with 0.5 mL of the GLP-1 compound. The final formulations were dosed by oral gavage at 2 mL/kg (1.1 mg/kg GLP-1 compound, 300 mg/kg delivery agent) with to Male Sprague Dawley rats that were fasted for 12 hours prior to dosing. A subcutaneous dose of the GLP-1 compound alone was used as a control (0.011 mg/kg).

[2] = Solubility of delivery agents at desired formulation concentration; type: physicochemical; conditions: for solubility at the desired concentration of 150 mg/mL: 0.1 N NaOH base, further base to pH 11.5, and cosolvents
Experimental: Approximately 600 mg of delivery agent number 15 was weighed into Type I glass vials to which 3 mL of base (0.1 N NaOH, pH 12.7) was added to achieve a final concentration of 200 mg/mL. The pH was adjusted to 7.1 and the concentration was estimated to be 171 mg/mL. Delivery agent number 15 was then diluted to 150 mg/mL with Milli-Q® water.
Delivery agents number 40 and 9 were insoluble at the desired concentration of 150 mg/mL when followed example 1. […] Cosolvents tested included ethanol, N-methylpyrrolidone, N,N-dimethylacetamide, N,N-dimethylformamide, glycofurol, ethoxydiol, propylene glycol, polyethyleneglycol 300, and polyvinylpyrrolidone.
However, for delivery agent number 40, 150 mg was weighed into a Type I vial, to which 1 mL of Milli-Q® water was added, and the pH adjusted with 10 N NaOH.
(§1) Approximately 1.7 mL of suspending agent was added to a Type I glass vial containing 300 mg of delivery agent number 9. The preparation was cooled on ice for 3 minutes, followed by probe sonication on ice for 30 minutes using a Misonix Sonicator® Ultrasonic Processor XL ( 3/16th inch microtip). […] The formulation was then diluted to 150 mg/mL with the suspending agent.

[3] = Mean particle size of delivery agent suspension (Coulter LS Particle Size Analyzer); type: physicochemical; conditions: suspension in 4% w/v Klucel
Experimental: as §1

[4] = Stability studies of delivery agents, HPLC after three days storage; type: physicochemical; conditions: prepared at 150 mg/mL
Experimental: Stability studies were conducted for delivery agent numbers 9, 15, and 40. The delivery agents were freshly prepared as described above respectively to achieve the desired concentration of 150 mg/mL. The samples were divided into three 2 mL aliquots and stored at −20° C., 4° C., and ambient for three days. HPLC assay development and analyses were performed at the end of the storage period.

[5] = Peptide A 1.1 mg/kg + delivery agent 300 mg/kg, oral gavage, Tris solution
[6] = Peptide A 1.1 mg/kg + delivery agent 300 mg/kg, oral gavage, Tris suspension
[7] = stored at ambient for three days
[8] = stored at −20° C. for three days
[9] = Peptide A 1.1 mg/kg + delivery agent 300 mg/kg, oral gavage, Klucel suspension
[10] = Val8-Glu22-GLP-1 1.1 mg/kg + delivery agent 300 mg/kg, oral gavage, solution
[11] = Peptide A alone, no delivery agent, Tris solution, subcutaneous control 0.011 mg/kg

Molecule: O=C(N[C@@H](Cc1ccccc1)C(=O)O)C1CCCCC1 (stereo in doubt) [Delivery agent 46]
AUC ([1]; Peptide A 1.1 mg/kg + delivery agent 300 mg/kg, oral gavage, Klucel solution): 4789.7 pg·min/mL | AUC [1, 5]: 19304.1 pg·min/mL

Molecule: O=C(O)CCCCCCCNC(=O)c1ccccc1O [Delivery agent 5]
AUC [1, 6]: 40984 pg·min/mL

Molecule: O=C(O)CCCCCCCCCNC(=O)c1ccccc1O [Delivery agent 6]
AUC [1, 6]: 37926 pg·min/mL

Molecule: CN(C)CCCCCCNC(=O)c1ccccc1O [Delivery agent 7]
AUC [1, 5]: 204611 pg·min/mL

Molecule: O=C(O)CCCCCCCNC(=O)c1cc(Cl)ccc1O [Delivery agent 9]
solubility at the desired concentration of 150 mg/mL [2]: insoluble | aqueous solubility ([2]; aqueous): aqueous insolubility | mean particle size before sonication [3]: 48 μm | mean particle size after sonication ([3]; probe sonication 30 minutes, pH 7.98): 8 μm | Stability Data: delivery agent concentration ([4]; stored at 4° C. for three days): 148.6 mg/mL | Stability Data: delivery agent concentration [4, 7]: 146.0 mg/mL | Stability Data: delivery agent concentration [4, 8]: 153.2 mg/mL | AUC ([1]; Val8-Glu22-GLP-1 1.1 mg/kg + delivery agent 300 mg/kg, oral gavage, Klucel suspension): 28144 ± 38576 pg·min/mL

Molecule: Cc1cccc(C(=O)NCCCCCCCC(=O)[O-])c1[O-].[Na+].[Na+] [Delivery agent 12]
AUC [1, 9]: 35239 pg·min/mL

Molecule: COc1ccc(C(=O)NCCCCCCCC(=O)[O-])c([O-])c1.[Na+].[Na+] [Delivery agent 15]
Stability Data: delivery agent concentration ([4]; stored at 4° C. for three days): 138.2 mg/mL | Stability Data: delivery agent concentration [4, 7]: 137.4 mg/mL | Stability Data: delivery agent concentration [4, 8]: 135.5 mg/mL | AUC [1, 5]: 254291 pg·min/mL | AUC ([1]; Peptide B + delivery agent, oral gavage, Tris solution): 82656 pg·min/mL | AUC [1, 10]: 254291 ± 129387 pg·min/mL

Molecule: COc1ccc(C(=O)NCCCCCCCN(C)C)c(O)c1 [Delivery agent 16]
AUC [1, 9]: 19972 pg·min/mL

Molecule: O=C([O-])Cc1ccc(NC(=O)c2ccccc2O)cc1.[Na+] [Delivery agent 21]
AUC [1, 6]: 57166 pg·min/mL

Molecule: CN(C)c1ccc(C(=O)Nc2ccc(CCCC(=O)O)cc2)cc1 [Delivery agent 24]
AUC [1, 5]: 21559.2 pg·min/mL

Molecule: CC(=O)c1ccccc1OCCCCCCCC(=O)[O-].[Na+] [Delivery agent 29]
AUC [1, 5]: 62303 pg·min/mL

Molecule: CC(=O)c1ccccc1OCc1ccc(C(=O)O)cc1 [Delivery agent 30]
AUC [1, 5]: 35259 pg·min/mL

Molecule: CNC(=O)c1ccccc1OCCCCCCCC(=O)O [Delivery agent 31]
AUC [1, 5]: 30164 pg·min/mL

Molecule: O=C(O)CCCCCCCNS(=O)(=O)c1ccccc1 [Delivery agent 36]
AUC [1, 5]: 42036 pg·min/mL

Molecule: O=C(O)[C@@H](NS(=O)(=O)c1ccccc1)c1ccccc1 [Delivery agent 38]
AUC [1, 5]: 5669 pg·min/mL

Molecule: O=C(O)c1ccc(NS(=O)(=O)c2ccccc2)cc1 [Delivery agent 39]
AUC [1, 5]: 6087 pg·min/mL

Molecule: O=C(O)CCCc1ccc(NS(=O)(=O)c2ccccc2)cc1 [Delivery agent 40]
solubility at the desired concentration of 150 mg/mL [2]: insoluble | solution concentration achieved ([2]; Milli-Q water, pH adjusted with 10 N NaOH, pH 8.22): 150 mg/mL | Stability Data: delivery agent concentration ([4]; stored at 4° C. for three days): 135.1 mg/mL | Stability Data: delivery agent concentration [4, 7]: 135.3 mg/mL | Stability Data: delivery agent concentration [4, 8]: 134.0 mg/mL | AUC [1, 5]: 94215 pg·min/mL | AUC [1, 10]: 94215 ± 66732 pg·min/mL

Molecule: CN(c1ccc(CCCC(=O)O)cc1)S(=O)(=O)c1ccccc1 [Delivery agent 41]
AUC [1, 5]: 21679.1 pg·min/mL

Molecule: O=C(O)CCCCCCCNC(=O)C1CCCCC1 [Delivery agent 43]
AUC [1, 6]: 7281 pg·min/mL

Molecule: O=C(O)CCCc1ccc(NC(=O)C2CCCCC2)cc1 [Delivery agent 44]
AUC [1, 5]: 55671 pg·min/mL

Molecule: CC(C)C[C@H](NC(=O)C1CCCCC1)C(=O)O [Delivery agent 45]
AUC [1, 5]: 13468.0 pg·min/mL

Molecule: CC(C)[C@H](NC(=O)C1CCCCC1)C(=O)O [Delivery agent 48]
AUC [1, 5]: 6068.5 pg·min/mL

Molecule: O=C(O)CCCCCCCNC(=O)/C=C/c1ccccc1F [Delivery agent 51]
AUC [1, 5]: 10838 pg·min/mL

Molecule: O=C(O)CCCCc1nnc(-c2ccccc2O)o1 [Delivery agent 54]
AUC [1, 9]: 218240.8 pg·min/mL | AUC [1, 6]: 684087.3 pg·min/mL

Molecule: O=C(N[C@H](C(=O)O)c1ccccc1)c1ccccc1 [Delivery agent 55]
AUC [1, 5]: 20177.7 pg·min/mL

Molecule: O=C(N[C@@H](Cc1ccccc1)C(=O)O)c1ccccc1 [Delivery agent 56]
AUC [1, 5]: 48324.4 pg·min/mL

Molecule: HVEGTFTSDVSSYLEEQAAKEFIAWLVKGRG [A]
AUC [1, 11]: 93635 pg·min/mL | Cmax [1, 11]: 3.781 ng/mL | Tmax [1, 11]: 10 ± 0 min | AUC ([1]; male, Sprague Dawley, in vivo, sc, GLP-1 compound alone, solution, subcutaneous control 0.011 mg/kg, read-out: AUC (converted)): 93600 pg·min/mL | Cmax ([1]; male, Sprague Dawley, in vivo, sc, GLP-1 compound alone, solution, subcutaneous control 0.011 mg/kg, read-out: Cmax): 3.78 ± 1.1 ng/mL | Tmax ([1]; male, Sprague Dawley, in vivo, sc, GLP-1 compound alone, solution, subcutaneous control 0.011 mg/kg, read-out: Tmax (converted)): 10 min

Further lines, results first:

AUC [1, 5]: 7202 pg·min/mL
Molecule: O=C(O)CCCCCCCNC(=O)c1ccccc1 [Delivery agent 2]

AUC [1, 5]: 237422.3 pg·min/mL
Molecule: CN(CCCCCCCC(=O)O)C(=O)c1ccccc1 [Delivery agent 3]

AUC [1, 5]: 173548.6 pg·min/mL
Molecule: CN(CCCCCCCC(=O)O)C(=O)c1ccccc1O [Delivery agent 8]

AUC [1, 5]: 160066.6 pg·min/mL
Molecule: COc1cc(O)ccc1C(=O)NCCCCCCCC(=O)O [Delivery agent 14]

AUC [1, 6]: 290106.4 pg·min/mL
Molecule: CN(C(=O)c1ccccc1)c1ccc(CCCC(=O)[O-])cc1.[Na+] [Delivery agent 19]

AUC [1, 6]: 21948 pg·min/mL
Molecule: O=C(N[C@@H](Cc1ccccc1)C(=O)O)c1ccccc1O [Delivery agent 20]

AUC [1, 5]: 15747 pg·min/mL
Molecule: COc1ccccc1C(=O)Nc1ccc(CCCC(=O)O)cc1 [Delivery agent 23]

AUC [1, 5]: 113480.1 pg·min/mL
Molecule: O=C(O)CCCCCCCOc1ccccc1O [Delivery agent 26]

AUC [1, 9]: 299137.2 pg·min/mL
Molecule: O=C(O)CCCCCCCOc1cccc(O)c1 [Delivery agent 27]

AUC [1, 5]: 59543 pg·min/mL | AUC [1, 6]: 13116 pg·min/mL
Molecule: CC(=O)c1ccccc1OCCCCCCCC(=O)O [Delivery agent 28]

AUC [1, 6]: 130175.6 pg·min/mL
Molecule: O=C(O)CCCCCCCNC(=O)c1ccccn1 [Delivery agent 32]

AUC [1, 6]: 6964.2 pg·min/mL
Molecule: O=C(O)CCCCCCCNC(=O)c1ccncc1 [Delivery agent 34]

AUC [1, 6]: 337360 pg·min/mL
Molecule: O=C(O)CCCCCCc1nnc(-c2ccccc2)o1 [Delivery agent 53]

From patent US7939494B2, “Method for administering GLP-1 molecules” (Emisphere Technologies, Inc., priority 2002, dated 2011)
